A value given as a limit tells only on which side of the number the result lay.

Consider 24 molecules from US8148391B2 (Cephalon, Inc., priority 2006, dated 2012).

Assay [1] concerns the target T1, baculovirus-expressed ALK (Homo sapiens, UniProt Q9UM73).
T1 construct: host or cells: baculovirus expression system
The assay can be described thus: ALK Kinase Assay (ELISA-type, time-resolved fluorescence). The assay is classed as biochemical. Conditions: ALK kinase inhibition, 1 μM ATP (Km level); read-out: ALK Activity. An outline of the steps: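 Plates coated with phospholipase C-γ substrate (10 μg/mL in TBS); reaction started with 30 ng/ml ALK and run 15 min at 37° C. Phosphorylated substrate detected with Eu-N1-labeled PT66 antibody. IC50 from sigmoidal variable-slope fit of percent inhibition vs log concentration.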
(In general: An ELISA detects its analyte on a solid surface through an enzyme-linked reagent.)

Assay [2] addresses T2, c-Met (cytoplasmic domain) (Homo sapiens, UniProt P08581).
T2 construct: 10 ng/mL c-Met (cytoplasmic domain, Invitrogen Corporation #PV3143); purchased Invitrogen Corporation PV3143
In words: c-Met Kinase Assay (same methods as for ALK, with modifications). The assay is classed as biochemical. Conditions: c-Met kinase inhibition, 1 μM ATP (Km level); read-out: cMet Activity. An outline of the steps:
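Plates were coated with phospholipase C-γ substrate (10 μg/mL) in TBS, and the reaction was started with 10 ng/mL c-Met cytoplasmic domain and run 15 min at 37 °C. Phosphoproduct was detected with Eu-N1-labelled PT66 antibody. IC50 came from a variable-slope sigmoidal fit of percent inhibition vs log concentration.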

T1 sequence (Q9UM73 19-1620): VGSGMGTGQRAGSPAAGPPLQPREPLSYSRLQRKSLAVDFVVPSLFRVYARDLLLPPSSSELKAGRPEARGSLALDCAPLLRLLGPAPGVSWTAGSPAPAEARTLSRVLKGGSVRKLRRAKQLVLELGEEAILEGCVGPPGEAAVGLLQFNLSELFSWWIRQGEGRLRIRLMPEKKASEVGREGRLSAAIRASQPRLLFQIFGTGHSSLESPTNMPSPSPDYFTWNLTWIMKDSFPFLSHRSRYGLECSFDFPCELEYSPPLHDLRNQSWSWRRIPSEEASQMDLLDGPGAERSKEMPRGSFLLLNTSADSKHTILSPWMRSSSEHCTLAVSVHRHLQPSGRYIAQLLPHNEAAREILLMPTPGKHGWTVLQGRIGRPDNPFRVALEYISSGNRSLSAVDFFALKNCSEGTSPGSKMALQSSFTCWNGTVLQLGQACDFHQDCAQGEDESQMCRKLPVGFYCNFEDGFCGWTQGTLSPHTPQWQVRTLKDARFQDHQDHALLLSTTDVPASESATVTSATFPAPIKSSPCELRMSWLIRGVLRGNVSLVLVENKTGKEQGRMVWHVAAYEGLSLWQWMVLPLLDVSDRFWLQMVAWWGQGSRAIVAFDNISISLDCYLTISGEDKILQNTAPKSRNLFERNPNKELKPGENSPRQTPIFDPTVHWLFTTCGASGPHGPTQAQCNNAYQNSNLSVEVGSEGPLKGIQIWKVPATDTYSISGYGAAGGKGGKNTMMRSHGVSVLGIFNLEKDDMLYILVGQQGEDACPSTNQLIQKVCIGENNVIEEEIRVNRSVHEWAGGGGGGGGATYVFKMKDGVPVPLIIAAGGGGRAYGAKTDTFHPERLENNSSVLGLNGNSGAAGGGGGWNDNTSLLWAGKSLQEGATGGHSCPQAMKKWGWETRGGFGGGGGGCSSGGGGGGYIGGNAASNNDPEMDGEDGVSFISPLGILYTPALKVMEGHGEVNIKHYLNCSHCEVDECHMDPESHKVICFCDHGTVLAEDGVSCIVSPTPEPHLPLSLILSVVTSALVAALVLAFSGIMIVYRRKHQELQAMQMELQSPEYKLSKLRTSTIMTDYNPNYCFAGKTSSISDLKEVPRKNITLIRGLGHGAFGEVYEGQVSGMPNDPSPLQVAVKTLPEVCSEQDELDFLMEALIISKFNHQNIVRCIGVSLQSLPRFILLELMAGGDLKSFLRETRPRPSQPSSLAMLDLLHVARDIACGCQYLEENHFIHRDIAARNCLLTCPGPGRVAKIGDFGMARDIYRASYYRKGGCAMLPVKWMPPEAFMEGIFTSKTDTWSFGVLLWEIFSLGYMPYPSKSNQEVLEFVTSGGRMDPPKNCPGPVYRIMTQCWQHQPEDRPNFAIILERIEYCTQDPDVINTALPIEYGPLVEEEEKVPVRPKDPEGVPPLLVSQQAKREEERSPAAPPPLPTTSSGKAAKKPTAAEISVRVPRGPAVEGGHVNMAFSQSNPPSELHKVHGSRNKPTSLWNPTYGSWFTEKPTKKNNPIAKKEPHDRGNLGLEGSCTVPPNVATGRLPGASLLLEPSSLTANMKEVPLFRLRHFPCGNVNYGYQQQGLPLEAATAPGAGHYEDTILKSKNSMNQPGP
T2 sequence (P08581 956-1390 limits assumed): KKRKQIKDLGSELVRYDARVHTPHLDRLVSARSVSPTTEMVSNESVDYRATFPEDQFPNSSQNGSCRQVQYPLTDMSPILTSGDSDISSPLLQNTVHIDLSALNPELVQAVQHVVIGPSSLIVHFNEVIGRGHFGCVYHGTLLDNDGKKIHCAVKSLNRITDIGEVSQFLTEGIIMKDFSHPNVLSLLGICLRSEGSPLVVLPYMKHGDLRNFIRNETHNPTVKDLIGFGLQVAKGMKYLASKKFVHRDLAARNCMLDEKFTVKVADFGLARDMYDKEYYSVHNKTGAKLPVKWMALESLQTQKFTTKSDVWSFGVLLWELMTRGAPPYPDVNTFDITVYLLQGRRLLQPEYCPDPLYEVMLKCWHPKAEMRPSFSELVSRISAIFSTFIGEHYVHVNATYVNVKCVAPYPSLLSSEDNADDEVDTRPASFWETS

On to `CNC(=O)c1ccccc1Nc1nc(Nc2ccc3c(c2)CCCC(=O)N3C)ncc1Br` [Example 197, 2-[5-Bromo-2-(1-methyl-2-oxo-2,3,4,5-tetrahydro-1H-benzo[b]azepin-7-ylamino)-pyrimidin-4-ylamino]-N-methyl-benzamide], for which the IC50 in assay [1] and in assay [2] was under 100 nM throughout.
Take `CNC(=O)c1ccccc1Nc1nc(Nc2cc3c(cc2OC)CCN(CCOC)CC3)ncc1Br` [Example 198, 2-{5-Bromo-2-[8-methoxy-3-(2-methoxy-ethyl)-2,3,4,5-tetrahydro-1H-benzo[d]azepin-7-ylamino]-pyrimidin-4-ylamino}-N-methyl-benzamide]: the IC50 in assay [1] was under 100 nM; in assay [2], 1000 to 10000 nM.
For `CCN1CCc2ccc(Nc3ncc(Cl)c(NCCC(=O)NC)n3)cc2CC1` [Example 211, 3-[5-Chloro-2-(3-ethyl-2,3,4,5-tetrahydro-1H-benzo[d]azepin-7-ylamino)-pyrimidin-4-ylamino]-N-methyl-propionamide], in that order: 100 to 1000 nM and 1000 to 10000 nM.
For `CCN1CCc2ccc(Nc3ncc(Cl)c(NCCCC(=O)NC)n3)cc2CC1` [Example 212, 4-[5-Chloro-2-(3-ethyl-2,3,4,5-tetrahydro-1H-benzo[d]azepin-7-ylamino)-pyrimidin-4-ylamino]-N-methyl-butyramide], in that order: 1000 to 10000 nM and 1000 to 10000 nM.
For `CNC(=O)c1ccccc1Nc1nc(Nc2cccc3c2C(=O)N(C)CCN3C)ncc1Cl` [Example 213, 2-[5-Chloro-2-(1,4-dimethyl-5-oxo-2,3,4,5-tetrahydro-1H-benzo[e][1,4]diazepin-6-ylamino)-pyrimidin-4-ylamino]-N-methyl-benzamide], in that order: 1000 to 10000 nM and over 10000 nM.
As for `CN1CCN(C)c2cccc(Nc3ncc(Cl)c(N[C@@H]4CCCC[C@H]4NS(C)(=O)=O)n3)c2C1=O` [Example 214, N-{(1R,2R)-2-[5-Chloro-2-(1,4-dimethyl-5-oxo-2,3,4,5-tetrahydro-1H-benzo[e][1,4]diazepin-6-ylamino)-pyrimidin-4-ylamino]-cyclohexyl}-methanesulfonamide], the figures for the IC50 in assay [1] and in assay [2] were 100 to 1000 nM and 1000 to 10000 nM, respectively.
The corresponding values for `CN1CCN(C)c2cccc(Nc3ncc(Cl)c(Nc4ccccc4NS(C)(=O)=O)n3)c2C1=O` [Example 215, N-{2-[5-Chloro-2-(1,4-dimethyl-5-oxo-2,3,4,5-tetrahydro-1H-benzo[e][1,4]diazepin-6-ylamino)-pyrimidin-4-ylamino]-phenyl}-methanesulfonamide] are over 10000 nM and over 10000 nM.
The corresponding values for `CCN1CCc2ccc(Nc3ncc(Cl)c(Nc4ccccc4-c4nccn4C)n3)cc2CC1` [Example 216, 5-Chloro-N*2*-(3-ethyl-2,3,4,5-tetrahydro-1H-benzo[d]azepin-7-yl)-N*4*-[2-(1-methyl-1H-imidazol-2-yl)-phenyl]-pyrimidine-2,4-diamine] are under 100 nM and 100 to 1000 nM.
For `Cn1ccnc1-c1ccccc1Nc1nc(Nc2ccc3c(c2)CCC(=O)CC3)ncc1Cl` [Example 217, 2-{5-Chloro-4-[2-(1-methyl-1H-imidazol-2-yl)-phenylamino]-pyrimidin-2-ylamino}-5,6,8,9-tetrahydro-benzocyclohepten-7-one], the IC50 in assay [1] was under 100 nM; in assay [2], 100 to 1000 nM.
On to `Cn1ccnc1-c1ccccc1Nc1nc(Nc2ccc3c(c2)CCC(N2CCOCC2)CC3)ncc1Cl` (stereo not drawn) [Example 218, 5-Chloro-N*4*-[2-(1-methyl-1H-imidazol-2-yl)-phenyl]-N*2*-(7-morpholin-4-yl-6,7,8,9-tetrahydro-5H-benzocyclohepten-2-yl)-pyrimidine-2,4-diamine], for which the IC50 was under 100 nM in assay [1] and 100 to 1000 nM in assay [2].
For `Cn1ccnc1-c1ccccc1Nc1nc(Nc2ccc3c(c2)CCC(F)(F)CC3)ncc1Cl` [Example 219, 5-Chloro-N*2*-(7,7-difluoro-6,7,8,9-tetrahydro-5H-benzocyclohepten-2-yl)-N*4*-[2-(1-methyl-1H-imidazol-2-yl)-phenyl]-pyrimidine-2,4-diamine], the results for the IC50 in assay [1] and in assay [2] were 100 to 1000 nM and over 10000 nM, respectively.
Consider `CC1(C)CCC(=O)Nc2ccc(Nc3ncc(Cl)c(Nc4ccccc4-c4ncc[nH]4)n3)cc21` [Example 220, 7-{5-Chloro-4-[2-(1H-imidazol-2-yl)-phenylamino]-pyrimidin-2-ylamino}-5,5-dimethyl-1,3,4,5-tetrahydro-benzo[b]azepin-2-one], for which the IC50 in assay [1] was under 100 nM; in assay [2] it was 1000 to 10000 nM.
With `COCCN1CCc2ccc(Nc3ncc(Cl)c(Nc4ccccc4-c4ncc[nH]4)n3)cc2CC1` [Example 221, 5-Chloro-N*4*-[2-(1H-imidazol-2-yl)-phenyl]-N*2*-[3-(2-methoxy-ethyl)-2,3,4,5-tetrahydro-1H-benzo[d]azepin-7-yl]-pyrimidine-2,4-diamine], the IC50 in assay [1] was under 100 nM; in assay [2], 100 to 1000 nM.
For the molecule `CCOCn1ccnc1-c1ccccc1Nc1nc(Nc2ccc3c(c2)CCN(CCOC)CC3)ncc1Cl` [Example 222, 5-Chloro-N*4*-[2-(1-ethoxymethyl-1H-imidazol-2-yl)-phenyl]-N*2*-[3-(2-methoxy-ethyl)-2,3,4,5-tetrahydro-1H-benzo[d]azepin-7-yl]-pyrimidine-2,4-diamine], the IC50 in assay [1] was under 100 nM; in assay [2], 1000 to 10000 nM.
With `CS(=O)(=O)Nc1ccccc1Nc1nc(Nc2ccc3c(c2)CNC(=O)NC3)ncc1Cl` [Example 225, N-{2-[5-Chloro-2-(3-oxo-2,3,4,5-tetrahydro-1H-benzo[e][1,3]diazepin-7-ylamino)-pyrimidin-4-ylamino]-phenyl}-methanesulfonamide], the IC50 in assay [1] was under 100 nM; in assay [2], 1000 to 10000 nM.
For `CS(=O)(=O)N[C@@H]1CCCC[C@H]1Nc1nc(Nc2ccc3c(c2)CNC(=O)NC3)ncc1Cl` [Example 226, N-{(1R,2R)-2-[5-Chloro-2-(3-oxo-2,3,4,5-tetrahydro-1H-benzo[e][1,3]diazepin-7-ylamino)-pyrimidin-4-ylamino]-cyclohexyl}-methanesulfonamide], the IC50 in assay [1] was under 100 nM; in assay [2] it was 1000 to 10000 nM.
For `CNC(=O)c1ccccc1Nc1nc(Nc2ccc3c(c2)CNC(=O)NC3)ncc1Cl` [Example 227, 2-[5-Chloro-2-(3-oxo-2,3,4,5-tetrahydro-1H-benzo[e][1,3]diazepin-7-ylamino)-pyrimidin-4-ylamino]-N-methyl-benzamide], in that order: under 100 nM and under 100 nM.
For `NC(=O)C1C2C=CC(C2)C1Nc1nc(Nc2ccc3c(c2)CNC(=O)NC3)ncc1Cl` (stereo not drawn) [Example 228, (2-exo,3-exo)-3-[5-Chloro-2-(3-oxo-2,3,4,5-tetrahydro-1H-benzo[e][1,3]diazepin-7-ylamino)-pyrimidin-4-ylamino]-bicyclo[2.2.1]hept-5-ene-2-carboxylic acid amide], in that order: under 100 nM and 100 to 1000 nM.
For `CNC(=O)c1ccccc1Nc1nc(Nc2cccc3c2C(=O)NC(C)CN3C(=O)C(F)(F)F)ncc1Cl` (stereo not drawn) [Example 229, 2-{5-Chloro-2-[3-methyl-5-oxo-1-(2,2,2-trifluoro-acetyl)-2,3,4,5-tetrahydro-1H-benzo[e][1,4]diazepin-6-ylamino]-pyrimidin-4-ylamino}-N-methyl-benzamide], in that order: over 10000 nM and over 10000 nM.
Regarding `CC1CNC(=O)c2c(Nc3ncc(Cl)c(N[C@@H]4CCCC[C@H]4NS(C)(=O)=O)n3)cccc2N1C(=O)C(F)(F)F` (stereo partly drawn) [Example 231, N-((1R,2R)-2-{5-Chloro-2-[2-methyl-5-oxo-1-(2,2,2-trifluoro-acetyl)-2,3,4,5-tetrahydro-1H-benzo[e][1,4]diazepin-6-ylamino]-pyrimidin-4-ylamino}-cyclohexyl)-methanesulfonamide], the figures for the IC50 in assay [1] and in assay [2] were 100 to 1000 nM and 1000 to 10000 nM, respectively.
Consider `CCN1CCc2ccc(Nc3ncc(Cl)c(N[C@@H]4CCCC[C@H]4NS(C)(=O)=O)n3)c(OC)c2CC1` [Example 232, N-{(1R,2R)-2-[5-Chloro-2-(3-ethyl-6-methoxy-2,3,4,5-tetrahydro-1H-benzo[d]azepin-7-ylamino)-pyrimidin-4-ylamino]-cyclohexyl}-methanesulfonamide], for which the figures for the IC50 in assay [1] and in assay [2] were under 100 nM and over 10000 nM, respectively.
Turning to `CCN1CCc2ccc(Nc3ncc(Cl)c(Nc4ccccc4NS(C)(=O)=O)n3)c(OC)c2CC1` [Example 233, N-{2-[5-Chloro-2-(3-ethyl-6-methoxy-2,3,4,5-tetrahydro-1H-benzo[d]azepin-7-ylamino)-pyrimidin-4-ylamino]-phenyl}-methanesulfonamide], the IC50 was under 100 nM in assay [1] and over 10000 nM in assay [2].
For `CCN1CCc2ccc(Nc3ncc(Cl)c(Nc4ccccc4C(=O)NC)n3)c(OC)c2CC1` [Example 234, 2-[5-Chloro-2-(3-ethyl-6-methoxy-2,3,4,5-tetrahydro-1H-benzo[d]azepin-7-ylamino)-pyrimidin-4-ylamino]-N-methyl-benzamide], in that order: under 100 nM and over 10000 nM.
For `CCN1CCc2ccc(Nc3ncc(Cl)c(N[C@@H]4c5ccccc5C[C@@H]4O)n3)cc2CC1` [Example 235, (1R,2S)-1-[5-Chloro-2-(3-ethyl-2,3,4,5-tetrahydro-1H-benzo[d]azepin-7-ylamino)-pyrimidin-4-ylamino]-indan-2-ol], the IC50 in assay [1] is under 100 nM; in assay [2] it was 1000 to 10000 nM.
